Source: the NIST ThermoML archive (doi:10.1016/j.jct.2019.02.019)
Numbers after ± are expanded uncertainties.

Experiment: xn = mol fraction of the nth substance listed
Details: 101 kPa, Liquid; for viscosity: Capillary tube (Ostwald / Ubbelohde) method; for mass density: Vibrating tube method

NCCO [2-aminoethan-1-ol] + CCO
Details | mass density, 293.15 K [kg/m3] | mass density, 303.15 K [kg/m3] | mass density, 313.15 K [kg/m3] | mass density, 323.15 K [kg/m3] | viscosity, 293.15 K [mPa·s] | viscosity, 303.15 K [mPa·s] | viscosity, 313.15 K [mPa·s] | viscosity, 323.15 K [mPa·s]
x1 = 0.1002 | 816.84 ± 1.5 | 808.87 ± 1.5 | 799.33 ± 1.5 | 791.69 ± 1.4 | 1.56 ± 0.07 | 1.27 ± 0.05 | 1.05 ± 0.04 | 0.87 ± 0.04
x1 = 0.1999 | 843.68 ± 1.4 | 834.94 ± 1.4 | 825.34 ± 1.4 | 817.35 ± 1.4 | 2.12 ± 0.09 | 1.68 ± 0.07 | 1.36 ± 0.06 | 1.11 ± 0.05
x1 = 0.3002 | 868.92 ± 1.4 | 860.42 ± 1.4 | 850.66 ± 1.4 | 842.49 ± 1.4 | 2.89 ± 0.12 | 2.23 ± 0.09 | 1.77 ± 0.07 | 1.42 ± 0.06
x1 = 0.4004 | 893.15 ± 1.4 | 884.54 ± 1.4 | 874.69 ± 1.4 | 866.58 ± 1.4 | 3.96 ± 0.17 | 2.98 ± 0.13 | 2.29 ± 0.1 | 1.8 ± 0.08
x1 = 0.5 | 916.18 ± 1.4 | 907.59 ± 1.4 | 897.82 ± 1.4 | 889.61 ± 1.4 | 5.44 ± 0.23 | 3.96 ± 0.17 | 2.95 ± 0.12 | 2.28 ± 0.1
x1 = 0.5998 | 938.02 ± 1.3 | 929.38 ± 1.3 | 919.84 ± 1.3 | 911.88 ± 1.3 | 7.45 ± 0.32 | 5.23 ± 0.22 | 3.8 ± 0.16 | 2.87 ± 0.12
x1 = 0.7 | 959.13 ± 1.3 | 950.81 ± 1.3 | 941.56 ± 1.3 | 933.03 ± 1.3 | 10.19 ± 0.43 | 6.92 ± 0.29 | 4.87 ± 0.2 | 3.6 ± 0.15
x1 = 0.7996 | 978.96 ± 1.3 | 970.81 ± 1.3 | 961.95 ± 1.3 | 953.82 ± 1.3 | 13.74 ± 0.58 | 9.05 ± 0.38 | 6.17 ± 0.26 | 4.48 ± 0.19
x1 = 0.8994 | 998.41 ± 1.3 | 989.98 ± 1.3 | 981.44 ± 1.3 | 973.33 ± 1.3 | 18.22 ± 0.76 | 11.74 ± 0.49 | 7.74 ± 0.32 | 5.48 ± 0.23
x1 = 1 | 1016.3 ± 1 | 1008.02 ± 1 | 999.98 ± 1 | 991.97 ± 1 | 23.4 ± 0.95 | 14.71 ± 0.6 | 9.77 ± 0.4 | 6.83 ± 0.28

CN(CCO)CCO [N-methyldiethanolamine] + NCCO
Details | mass density, 293.15 K [kg/m3] | mass density, 303.15 K [kg/m3] | mass density, 313.15 K [kg/m3] | mass density, 323.15 K [kg/m3] | viscosity, 293.15 K [mPa·s] | viscosity, 303.15 K [mPa·s] | viscosity, 313.15 K [mPa·s] | viscosity, 323.15 K [mPa·s]
x1 = 0.1001 | 1021.71 ± 1 | 1013.23 ± 1 | 1005.13 ± 1 | 997.1 ± 1 | 32.9 ± 1.4 | 19.84 ± 0.84 | 12.83 ± 0.54 | 8.4 ± 0.35
x1 = 0.2006 | 1025.79 ± 1 | 1017.39 ± 1 | 1009.3 ± 1 | 1001.26 ± 1 | 43.27 ± 1.8 | 25.18 ± 1.1 | 15.97 ± 0.66 | 10.48 ± 0.44
x1 = 0.3 | 1029.07 ± 1 | 1020.72 ± 1 | 1012.66 ± 1 | 1004.69 ± 1 | 52.78 ± 2.2 | 30.53 ± 1.3 | 18.92 ± 0.78 | 12.49 ± 0.52
x1 = 0.3998 | 1031.69 ± 1 | 1023.42 ± 1 | 1015.36 ± 1 | 1007.45 ± 1 | 62.64 ± 2.6 | 35.8 ± 1.5 | 21.86 ± 0.9 | 14.3 ± 0.59
x1 = 0.4994 | 1033.82 ± 1 | 1025.62 ± 1 | 1017.61 ± 1 | 1009.72 ± 1 | 71.4 ± 2.9 | 40.6 ± 1.7 | 24.53 ± 1 | 15.83 ± 0.65
x1 = 0.5997 | 1035.58 ± 1 | 1027.46 ± 1 | 1019.48 ± 1 | 1011.68 ± 1 | 79.47 ± 3.3 | 45.11 ± 1.9 | 26.97 ± 1.1 | 17.35 ± 0.71
x1 = 0.6977 | 1037.09 ± 1 | 1029.04 ± 1 | 1021.11 ± 1 | 1013.34 ± 1 | 86.28 ± 3.6 | 48.61 ± 2 | 29.05 ± 1.2 | 18.6 ± 0.76
x1 = 0.7996 | 1038.43 ± 1 | 1030.43 ± 1 | 1022.52 ± 1 | 1014.79 ± 1 | 92.9 ± 3.9 | 52.06 ± 2.1 | 30.87 ± 1.3 | 19.64 ± 0.8
x1 = 0.8995 | 1039.57 ± 1 | 1031.61 ± 1 | 1023.72 ± 1 | 1016.04 ± 1 | 98.21 ± 4.1 | 54.8 ± 2.2 | 32.88 ± 1.3 | 20.56 ± 0.84
x1 = 1 | 1040.5 ± 1 | 1032.6 ± 1 | 1024.76 ± 1 | 1017.12 ± 1 | 103.04 ± 4.3 | 57.28 ± 2.3 | 33.94 ± 1.4 | 21.31 ± 0.87

CN(CCO)CCO [N-methyldiethanolamine] + CCO
Details | mass density, 293.15 K [kg/m3] | mass density, 303.15 K [kg/m3] | mass density, 313.15 K [kg/m3] | mass density, 323.15 K [kg/m3] | viscosity, 293.15 K [mPa·s] | viscosity, 303.15 K [mPa·s] | viscosity, 313.15 K [mPa·s] | viscosity, 323.15 K [mPa·s]
x1 = 0.1003 | 838.89 ± 2.1 | 830.03 ± 2 | 820.48 ± 2 | 812.93 ± 2 | 1.95 ± 0.09 | 1.54 ± 0.07 | 1.27 ± 0.06 | 1.03 ± 0.05
x1 = 0.2001 | 879.56 ± 1.8 | 869.79 ± 1.8 | 860.28 ± 1.8 | 852.57 ± 1.8 | 3.25 ± 0.15 | 2.45 ± 0.11 | 1.94 ± 0.09 | 1.52 ± 0.07
x1 = 0.3001 | 913.83 ± 1.6 | 903.04 ± 1.6 | 893.56 ± 1.6 | 885.65 ± 1.6 | 5.36 ± 0.24 | 3.88 ± 0.17 | 2.95 ± 0.13 | 2.25 ± 0.1
x1 = 0.3998 | 941.42 ± 1.4 | 930.67 ± 1.4 | 921.43 ± 1.4 | 913.45 ± 1.4 | 8.77 ± 0.4 | 6.08 ± 0.27 | 4.5 ± 0.2 | 3.32 ± 0.14
x1 = 0.5 | 964.94 ± 1.3 | 954.51 ± 1.3 | 945.44 ± 1.3 | 937.39 ± 1.3 | 14.09 ± 0.63 | 9.41 ± 0.41 | 6.64 ± 0.29 | 4.79 ± 0.21
x1 = 0.5999 | 984.81 ± 1.2 | 974.63 ± 1.3 | 965.86 ± 1.3 | 957.92 ± 1.3 | 21.94 ± 0.97 | 14.14 ± 0.62 | 9.68 ± 0.42 | 6.79 ± 0.29
x1 = 0.7 | 1001.91 ± 1.2 | 992.31 ± 1.2 | 983.56 ± 1.2 | 975.64 ± 1.2 | 33.37 ± 1.5 | 20.8 ± 0.9 | 13.69 ± 0.59 | 9.4 ± 0.4
x1 = 0.8001 | 1016.76 ± 1.2 | 1007.51 ± 1.2 | 999.13 ± 1.2 | 991.3 ± 1.2 | 49.36 ± 2.2 | 29.56 ± 1.3 | 18.85 ± 0.8 | 12.44 ± 0.53
x1 = 0.9005 | 1029.58 ± 1.1 | 1020.96 ± 1.1 | 1012.93 ± 1.1 | 1005.16 ± 1.1 | 72.94 ± 3.2 | 41.84 ± 1.8 | 25.38 ± 1.1 | 16.52 ± 0.7
x1 = 1 | 1040.5 ± 1 | 1032.6 ± 1 | 1024.76 ± 1 | 1017.12 ± 1 | 103.04 ± 4.3 | 57.28 ± 2.3 | 33.94 ± 1.4 | 21.31 ± 0.87
